Reference: ChEMBL document CHEMBL1140476 (Bioorg Med Chem, 2007)
Active and inactive are the calls of the source. The rule behind the calls is not given here.

How the values were obtained:
[1] = test system: Escherichia coli; assay: Inhibition of Escherichia coli DnaB helicase at 6 uM
[2] = test system: Escherichia coli; assay: Inhibition of Escherichia coli DnaB helicase at 12 uM
[3] = test system: Escherichia coli; assay: Inhibition of Escherichia coli DnaB helicase at 30 uM
[4] = test system: Escherichia coli; assay: Inhibition of Escherichia coli DnaB helicase at 60 uM
[5] = Inhibition of Escherichia coli DnaB helicase in presence of 150 uM ATP
[6] = Inhibition of Escherichia coli DnaB helicase in presence of 1 mM ATP
[7] = test system: Escherichia coli; assay: Inhibition of Escherichia coli DnaB helicase-stimulated primer synthesis

Which results are given for O=c1c(O)c(-c2cc(O)c(O)c(O)c2)oc2cc(O)cc(O)c12 [MYRICETIN]?
Km [1]: 17 µM; Vmax [1]: 1.64 µM/s; Km [2]: 2.9 µM; Vmax [2]: 1.06 µM/s; Km [3]: 2.3 µM; Vmax [3]: 0.61 µM/s; Km [4]: 4.5 µM; Vmax [4]: 0.35 µM/s; IC50 [5]: 10.2 µM; IC50 [6]: 11.3 µM; Activity [7]: Active
